The source of these data is patent US20050281904A1, “Kefir extract as an anti-cancer agent” (McGill University, priority 2000, published 2005).

In assay [1] the test system is MCF-7 cells. Briefly: Cell proliferation experiments, MCF-7 cells (cell numbers after 8 days). It is filed as cell-based, human. As to conditions: for antiproliferative effect on MCF-7 cells (dose effect): HPLC fractions or ceramide compounds alone. How it is done:
MCF7-E3 human breast cancer estrogen-sensitive cells were provided by Dr. D. Desaulniers of Health Canada, Ottawa. Cells were routinely propagated as a monolayer culture in Dulbcco's Modified Eale Medium (DMEM) supplemented with 10% heat-inactivated fetal bovine serum (FBS), in 75-cm^2 plastic dish at 37° C. in a humidified atmosphere with 5% CO2, and passage 3-4 days a time. A normal human mammary epithelial cell line was provided by Dr. M. Stampfer of UC Livermore Labs. Cells were routinely propagated as a monolayer culture in Mammary Epithelial Growth Media (MEGM, Clonetics, San Diego) supplemented with 10% heat-inactivated fetal bovine serum (FBS), in 75-cm^2 plastic dish at 37° C. in a humidified atmosphere with 5% CO2, and passage every week. For the experiments, both cells were harvest from the dish using 0.25% trypsin-EDTA solution.
Four kefir products (K1-K4) collected at various stages of kefir production at Liberty Brand Products, Inc. (Montreal, Canada) were used in this study. The large-scale production of kefir involves a two-step fermentation process. The first step is to prepare the cultures by incubating milk with kefir grains (2-10%) (K1) and fermented for 24 hrs. The grains are then removed by filtration and the resulting mother culture (K2) is added to pasteurized milk (K3), which is further fermented for 12 hrs and this final product (K4) is packaged for the consumer market. A pasteurized milk sample (M1) and two yogurt products; mixture of yogurt bacteria, pasteurized milk and milk powder (Y1) and the final yogurt product after 12 hrs of fermentation (Y2) were included for comparison. The yeast and bacteria in the samples were removed by centrifugation and filtration. About 35 ml each of the seven samples was centrifuged (32,000×g, 60 min, 4° C.) and the supernatant was filtered through a 0.45 μm Millipore filter followed by a 0.2 μm Millipore filter (Millipore Corporation, Bedford, USA). Extracts from two separate batches of kefir and yogurt were used.
Cells previously harvested were seeded in 24-well plates; 10,000 cells for MCF-7 per well in DMEM supplemented with 10% FBS and 5,000 cells for HMEC per well in MEGM supplemented with 10% FBS. The cells were allowed to attach for 24 hours. […] Cells were incubated at 37° C. in a humidified atmosphere with 5% CO2 for 8 days and the cell numbers in each well were counted using a Coulter Counter (Coulter Counter Corporation, USA). […]
The cell numbers expressed as percentage of control from different treatments and dose were compared using two-way ANOVA. When the interaction between treatments and dose was also significant the difference between treatment groups was determined by Tukey's HSD multiple comparison test. […]

Assay [2] concerns MCF-7 cells. As to conditions: 1 μM; cited from earlier work.

With `CCCCCCCCCCCCC/C=C/[C@@H](O)[C@H](CO)NC(=O)CCCCC` [C6 ceramide], in the assay on MCF-7 cells [1], the “antiproliferative effect on MCF-7 cells (dose effect)” value is reported as “strong dose dependent antiproliferative effect”. The “levels of angiogenesis stimulators VEGF and cathepsin D” value in the assay with MCF-7 cells [2] is on record as “below 50 % of the control”.

Consider `CC/C(=C(\c1ccccc1)c1ccc(OCCN(C)C)cc1)c1ccccc1` [Tamoxifen], for which, in the assay with MCF-7 cells [1], the “dosage showing antiproliferative effect on MCF-7 cells” value is on record as “above 0.2 μM/L”.

Consider ceramide 1-phosphate, for which, in the assay on MCF-7 cells [1], the “antiproliferative effect on MCF-7 cells (dose effect)” value is reported as “did not”.

Turning to ceramide I, the “antiproliferative effect on MCF-7 cells (dose effect)” value in the assay with MCF-7 cells [1] was “strong dose dependent antiproliferative effect”.
